This data set is described as follows: Synthetic musclin peptide plasma elimination half-life and volume of distribution (NMR of plasma after jugular vein injection). The format is in vivo, mouse. The method, then:
The musclin [^13C,^15N-A26-V27]-labeled peptide sequence used was as follows: […], corresponding to amino acids 80–112; GenBank accession no. AAS87598.1 (Bio-synthesis, Inc. Lewisville, TX, USA). A peptide was synthesized with 98% purity, counter-ion exchange (TFA to Cl), and pH adjustment (Bio-synthesis, Inc. Lewisville, TX, USA).
For infusion, 1.7 mg of the chemically synthesized [^13C,^15N-A26-V27]-labeled musclin peptide was dissolved in 300 µL of PBS. This musclin solution was injected into the jugular vein. A 100 µL blood sample was then drawn from the carotid artery at 1, 3, 5, 7, 10, and 15 min after the peptide infusion. Blood was mixed with 5 µL of 10% NaEDTA and 1 µL of peptidase inhibitor cocktail (Sigma, St. Louis, MI, USA) and kept on ice, then centrifuged at 4 °C for 45 min at 14,000 rpm. Plasma was removed and stored at −80 °C for NMR studies.
All NMR spectra were acquired at 5 °C on a Bruker Avance II 800 MHz NMR spectrometer equipped with a TCI cryoprobe. 100 µL of plasma (see above) was added 150 µL NMR buffer containing 50 mM sodium phosphate, pH 7.1 with a final volume of 250 µL in 8.5% D2O/91.5% H2O. This sample was then transferred to a Shigemi NMR tube for NMR studies. One-dimensional (1D) ^1H, two-dimensional (2D) ^15N/^1H-heteronuclear single-quantum correlation (HSQC), 2D ^13C/^1H-HSQC with constant time experiment (HSQC-CT), and 2D ^15N/^1H-slice of the three-dimensional (3D) HNCO experiment were acquired for each blood sample drawn at different times after peptide infusion. The collected NMR data were processed using NMRPipe and analyzed using NMRView. The musclin peptide concentration present in these blood samples was calibrated by using a known amount of chemically synthesized [^13C,^15N-A26-V27]-labeled musclin peptide. The peak intensity of these acquired NMR spectra was measured and fitted to the equation for half-life in exponential decay using GraphPad Prism (GraphPad Software version 9.4.1).

Structures are written as SMILES. Residues, ends and D or L forms follow the SMILES beside them.

By half-life is commonly meant how long it takes for the measured level to halve. Broadly, the Vd is the apparent volume that relates the amount in the body to the concentration in plasma or blood. For `CC(C)C[C@H](NC(=O)[C@H](CCCNC(=N)N)NC(=O)[C@H](CC(=O)O)NC(=O)[C@H](CC(C)C)NC(=O)[C@@H]1CCCN1C(=O)[C@H](CO)NC(=O)CNC(=O)[C@H](Cc1ccccc1)NC(=O)CNC(=O)[C@H](CO)NC(=O)[C@H](Cc1ccccc1)NC(=O)[C@@H](N)CO)C(=O)N[C@@H](CO)C(=O)N[C@@H](C)C(=O)NCC(=O)N[C@@H](CO)C(=O)N[C@H](C(=O)N[C@@H](CCC(=O)O)C(=O)N[C@@H](Cc1c[nH]cn1)C(=O)N[C@@H](CCCNC(=N)N)C(=O)NCC(=O)N[C@@H](CCCCN)C(=O)N[C@@H](CCC(N)=O)C(=O)N[C@@H](CCCNC(=N)N)C(=O)N[C@@H](CCCCN)C(=O)N[C@@H](C)C(=O)N[C@H](C(=O)N[C@@H](CC(=O)O)C(=O)N[C@@H](Cc1c[nH]cn1)C(=O)N[C@@H](CO)C(=O)N[C@@H](CCCCN)C(=O)N[C@@H](CCCCN)C(=O)N[C@@H](CCCNC(=N)N)C(=O)O)C(C)C)C(C)C` (H-SFSGFGSPLDRLSAGSVEHRGKQRKAVDHSKKR-OH; N-terminus and C-terminus assumed), for the setting “calculated for a mouse of 27 g”, the “Cl, clearance = Ke × Vd” value is reported as 1.71 mL/min. Besides, the C0 (in vivo, iv, mouse, 1.7 mg i.v. (jugular vein), NMR calibrated with known amount of labeled peptide, read-out: initial plasma concentration) came out at 36 µM. Under “in vivo, iv, mouse, 1.7 mg in 300 µL PBS injected into jugular vein, carotid artery blood at 1, 3, 5, 7, 10, 15 min, plasma NMR at 5 °C, HNCO (2D) peak intensities fitted to exponential decay, read-out: plasma elimination half-life (t ½)”, the half-life was determined as 4.6 min. Also, the “volume of distribution (Vd) per g body weight” value (mouse of 31 g, Vd = administered dose/initial concentration, 1.7 mg i.v. (jugular vein)) was 0.419 ml/g of BW. Under “mouse, i.v. (jugular vein)”, the “Ke, elimination rate = 0.693/T1/2” value stood at 0.151 min⁻¹. The same compound displayed a distribution volume (Vd) (mouse, in vivo, iv, for mice of 31 g, 1.7 mg/0.131 mg/mL) of 0.013 L.

The values are drawn from paper PMC10095193, “Myokine Musclin Is Critical for Exercise-Induced Cardiac Conditioning” (International Journal of Molecular Sciences, 2023).
